For experiment [1], the system named is CT2A mouse gliomas. Description: Immunophenotyping of tumor-infiltrating immune cells (flow cytometry). In kind it is in vivo, C57BL/6 mice. The procedure: The effect of OBT on glioma immunomodulation in vivo was next evaluated. 50,000 CT2A cells expressing Fluc were implanted in the striatum of immunocompetent C57BL/6 mice. Two weeks post-injection, mice were i.p. injected with OBT (7.5 mg/kg body weight/day) or PBS/DMSO control, over 4 days (n=6/group). Mice were sacrificed, brains removed, and tumor tissues dissected out and homogenized. […] OBT increased intratumoral CD8+ cytotoxic T cells with higher levels of both Ki-67 and granzyme B (markers for increased activation of effector cells, abrogation of suppressive immune cells) and decreased CD4+ regulatory T cells (Treg; CD25^+Foxp3^+), typically used by the tumour to escape the immune system, leading to an increase in the ratio of CD8+ T cells over Tregs (FIG. 25B-D). […] CTLA-4, PD-1, Lag-3 and Tim-3 levels (hallmark for exhausted and anergic T cells) were not changed on any of these cells (FIG. 25B; only showing PD-1).

The test system of experiment [2] is patient-derived GBM8 GSC tumors. Description: FDG-PET imaging of orthotopic GSC brain tumors. Format: in vivo, mice. The conditions noted are these: 3 doses of 10 mg/kg within 24 h, imaged 4 h after last dose; tumor to muscle ratio. From the text: In vivo Tumor Models: Animal experiments performed by our laboratory were approved by the Massachusetts General Hospital Subcommittee on Research Animal Care. Female athymic nude mice (6-8 weeks) were used in all studies with the exception of pharmacokinetics analysis. For brain tumors xenograft model, GBM8 cells (1×10^5 cells/mouse) stably expressing Fluc were stereotactically implanted into the left striatum of animals. Following implantation, animals were regularly imaged for Fluc to monitor brain tumor growth. To generate the breast cancer model, MDA-MB-231 cells (2.5×10^5 cells/mouse) expressing Fluc were mixed with Matrigel 1:1 (v/v) (BD Matrigel) and injected into the mammary fat pad of mice. Tris-OBT was dissolved in PBS and administered intraperitoneally. Tumor volumes were measured using a caliper and calculated according to the following formula: volume=(width)^2×length/2. […]
FDG-PET imaging: Mouse PET/CT scans (n=6, 3 per group) were performed sequentially using a custom-designed mouse bed and PET/CT gantry adapter. […] The same ROIs are then copied to the matching PET images for quantification of the ^18F-FDG PET signal as the standard uptake values (SUVs). […]

Experiment [3] relates to U87 glioma cells. The experiment can be described thus: Cell viability (CellTiter-Glo), U87. In kind it is cell-based, human. The conditions noted are these: shKeap1 vs shCtr1, four days. The procedure: Cell culture: MDA-MB-231 and U87 (U87-MG) cells were obtained from the American Type Culture Collection (ATCC). 293T human embryonic kidney fibroblasts were provided by Dr. Xandra Breakefield (Massachusetts General Hospital). All three cell lines were grown in Dulbecco's modified Eagle medium supplemented with 10% fetal bovine serum (Gemini Bio-products), 100 U penicillin, and 0.1 mg/mL streptomycin (Sigma). All cells were maintained at 37° C. in a humidified 5% CO2 incubator. GSCs were obtained from tumor tissues of GBM patients following surgical resection, under approval from the corresponding Institutional Review Board. These cells have been previously characterized (ref. 37-39) and were maintained in culture as neurospheres in Neurobasal medium (Gibco) supplemented with heparin (2 μg/mL; Sigma) and recombinant EGF (20 ng/mL) and bFGF-2 (10 ng/mL; Peprotech). Human Astrocytes were obtained from ScienCell and cultured in Astrocytes Medium (ScienCell)
Cell viability: Cells were plated in 96-well plates and treated with the corresponding compounds. Cell viability was measured by adding 25 μl/well of CellTiter-Glo (Promega) followed by 10 minutes incubation and transfer to a white 96-well plate. Bioluminescence was quantified using Synergy HTX multimode reader (Biotek).

Regarding `COC1=CC(=O)C(O)=C/C1=C/C=C/c1ccccc1` [OBT, (Z)-2-hydroxy-5-methoxy-4-((E)-3-phenylallylidene)cyclohexa-2,5-dien-1-one], in experiment [1] (7.5 mg/kg/day i.p. over 4 days), the “CD4+ regulatory T cells (Treg; CD25+Foxp3+)” value was “decreased”; the “Ki-67 and granzyme B in CD8+ T cells” value is given as “higher levels”; the dendritic cells result is listed as “significant increase”; the “intratumoral CD8+ cytotoxic T cells” value is listed as “increased”. Besides, in experiment [1] (7.5 mg/kg/day i.p. over 4 days), the “levels of CD4+ T cells” value is given as “did not change”; the “number of microglia and macrophages” value is “not changed”; the “ratio of CD8+ T cells over Tregs” value was “increase”. Besides, the “CTLA-4, PD-1, Lag-3 and Tim-3 levels” value in experiment [1] (T cells) was “not changed”. The CD47 result in experiment [1] (on all three cell types) is recorded as “significantly downregulated”. Moreover, in experiment [1] (on microglia, dendritic cells, macrophages), the PD-L1 result was “did not have an effect”. In experiment [2], the “decrease in FDG tumor uptake” value is reported as about 50%. Besides, the “cell death after silencing of Keap1” value in experiment [3] is reported as “decreased cell death”.
